Converted amounts (≈) assume the structure as drawn.
Assays:
HCT-116 [1] = experiment: Growth inhibition of human HCT116 cells after 72 hrs by MTT assay; format: functional; settings: HCT-116, 72 h
Aurora kinase A = target: T1, Aurora kinase A (Homo sapiens, UniProt O14965)
T1 sequence (O14965 whole entry): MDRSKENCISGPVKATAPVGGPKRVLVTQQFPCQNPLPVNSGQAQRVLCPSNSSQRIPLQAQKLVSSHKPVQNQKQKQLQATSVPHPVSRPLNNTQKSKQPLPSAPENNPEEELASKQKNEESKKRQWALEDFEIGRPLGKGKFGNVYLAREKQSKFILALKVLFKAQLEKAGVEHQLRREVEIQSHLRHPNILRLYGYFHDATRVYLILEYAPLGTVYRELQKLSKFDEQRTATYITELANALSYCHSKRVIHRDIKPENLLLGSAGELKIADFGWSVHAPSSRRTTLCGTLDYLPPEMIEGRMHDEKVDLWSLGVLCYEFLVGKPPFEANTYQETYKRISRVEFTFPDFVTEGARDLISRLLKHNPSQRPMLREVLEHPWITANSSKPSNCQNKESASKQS
Description: Inhibition of human recombinant Aurora A expressed in baculovirus system

[2] = Metabolic stability in CD1 mouse liver microsomes assessed as compound remaining at 10 uM after 30 mins by LC-MS/MS analysis; format: ADME, Microsome; settings: read-out: Stability
[3] = Aqueous solubility of the compound; format: physicochemical; settings: buffer
[4] = target: T2, Aurora kinase A (Homo sapiens) (UniProt O14965); experiment: Inhibition of Aurora A at 1 uM
T2 sequence (whole entry): T1 sequence (O14965 whole entry)

[5] = target: Angiopoietin-1 receptor (Homo sapiens) (UniProt Q02763); experiment: Inhibition of TEK at 1 uM
hERG (KCNH2) = hERG (KCNH2) (Homo sapiens, UniProt Q12809); experiment: (§1) Inhibition of human ERG at 10 uM
[6] = target: Aurora kinase B (Homo sapiens) (UniProt Q96GD4); experiment: Inhibition of Aurora B at 1 uM
[7] = target: T3, Ephrin type-B receptor 4 (Homo sapiens) (UniProt P54760); experiment: Inhibition of EPHB4 at 1 uM
T3 sequence (whole entry): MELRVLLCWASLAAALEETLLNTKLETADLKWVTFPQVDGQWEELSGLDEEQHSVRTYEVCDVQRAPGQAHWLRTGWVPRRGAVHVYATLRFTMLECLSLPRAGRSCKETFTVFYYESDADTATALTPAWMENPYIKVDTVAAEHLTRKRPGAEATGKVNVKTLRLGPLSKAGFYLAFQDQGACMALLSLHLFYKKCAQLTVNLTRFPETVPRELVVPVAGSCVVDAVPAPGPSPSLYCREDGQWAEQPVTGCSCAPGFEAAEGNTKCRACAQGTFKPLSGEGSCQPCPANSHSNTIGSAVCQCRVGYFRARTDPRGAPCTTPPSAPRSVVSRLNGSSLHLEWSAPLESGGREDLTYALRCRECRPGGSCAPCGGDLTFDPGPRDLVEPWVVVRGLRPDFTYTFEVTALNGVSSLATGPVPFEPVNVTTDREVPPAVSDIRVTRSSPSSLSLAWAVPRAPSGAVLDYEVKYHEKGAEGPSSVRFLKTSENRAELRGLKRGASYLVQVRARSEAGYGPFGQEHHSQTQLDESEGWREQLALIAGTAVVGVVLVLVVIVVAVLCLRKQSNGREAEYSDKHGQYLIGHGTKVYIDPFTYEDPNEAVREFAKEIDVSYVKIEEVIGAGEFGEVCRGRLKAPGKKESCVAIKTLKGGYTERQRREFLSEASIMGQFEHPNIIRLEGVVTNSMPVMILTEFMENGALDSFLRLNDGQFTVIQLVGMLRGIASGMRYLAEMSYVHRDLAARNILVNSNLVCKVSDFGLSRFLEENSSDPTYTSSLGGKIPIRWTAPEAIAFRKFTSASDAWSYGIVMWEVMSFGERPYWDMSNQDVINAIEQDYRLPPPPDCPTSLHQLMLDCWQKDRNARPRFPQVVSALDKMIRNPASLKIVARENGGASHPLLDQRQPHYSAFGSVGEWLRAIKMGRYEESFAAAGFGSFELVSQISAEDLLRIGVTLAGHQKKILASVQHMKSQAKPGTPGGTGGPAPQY

[8] = target: Vascular endothelial growth factor receptor 1 (Homo sapiens) (UniProt P17948); experiment: Inhibition of FLT1 at 1 uM
[9] = target: Vascular endothelial growth factor receptor 2 (Homo sapiens) (UniProt P35968); experiment: Inhibition of KDR at 1 uM
[10] = target: Tyrosine-protein kinase Lck (Homo sapiens) (UniProt P06239); experiment: Inhibition of LCK at 1 uM
[11] = target: Hepatocyte growth factor receptor (Homo sapiens) (UniProt P08581); experiment: Inhibition of MET at 1 uM
[12] = target: High affinity nerve growth factor receptor (Homo sapiens) (UniProt P04629); experiment: Inhibition of NTRK1 at 1 uM
[13] = target: Platelet-derived growth factor receptor beta (Homo sapiens) (UniProt P09619); experiment: Inhibition of PDGFRbeta at 1 uM
HCT-116 [14] = experiment: Growth inhibition of human HCT116 cells at 10 uM after 72 hrs by MTT assay; format: functional; settings: HCT-116, 72 h, read-out: GI
[15] = target: Voltage-gated inwardly rectifying potassium channel KCNH2 (Homo sapiens, UniProt Q12809); experiment: as §1; settings: 10 µM
[16] = Oral bioavailability in BALB/c mouse at 5 mg/kg; format: ADME, organism-based; settings: in vivo
[17] = Permeability by PAMPA assay; format: ADME; settings: read-out: permeability

Chain of High affinity nerve growth factor receptor (Homo sapiens) (P04629 33-796 limits assumed): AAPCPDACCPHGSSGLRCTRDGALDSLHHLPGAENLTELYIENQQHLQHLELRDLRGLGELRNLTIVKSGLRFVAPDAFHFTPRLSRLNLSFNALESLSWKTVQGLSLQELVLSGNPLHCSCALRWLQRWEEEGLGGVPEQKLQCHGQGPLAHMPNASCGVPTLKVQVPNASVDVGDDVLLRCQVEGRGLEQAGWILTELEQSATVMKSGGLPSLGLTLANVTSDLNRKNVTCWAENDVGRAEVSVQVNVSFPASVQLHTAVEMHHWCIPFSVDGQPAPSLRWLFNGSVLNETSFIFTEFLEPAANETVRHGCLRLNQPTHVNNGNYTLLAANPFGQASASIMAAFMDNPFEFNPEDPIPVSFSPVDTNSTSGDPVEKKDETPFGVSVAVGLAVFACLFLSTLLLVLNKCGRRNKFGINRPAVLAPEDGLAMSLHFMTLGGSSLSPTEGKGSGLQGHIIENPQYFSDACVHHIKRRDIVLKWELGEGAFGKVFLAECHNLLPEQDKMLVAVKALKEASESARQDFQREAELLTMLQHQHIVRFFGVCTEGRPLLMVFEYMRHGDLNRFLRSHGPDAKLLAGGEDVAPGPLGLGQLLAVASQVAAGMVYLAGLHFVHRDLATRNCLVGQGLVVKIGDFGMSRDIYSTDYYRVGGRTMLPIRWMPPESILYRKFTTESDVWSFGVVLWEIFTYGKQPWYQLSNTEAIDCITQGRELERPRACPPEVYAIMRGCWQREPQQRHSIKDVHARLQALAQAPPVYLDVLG
Chain of Hepatocyte growth factor receptor (Homo sapiens) (P08581 whole entry): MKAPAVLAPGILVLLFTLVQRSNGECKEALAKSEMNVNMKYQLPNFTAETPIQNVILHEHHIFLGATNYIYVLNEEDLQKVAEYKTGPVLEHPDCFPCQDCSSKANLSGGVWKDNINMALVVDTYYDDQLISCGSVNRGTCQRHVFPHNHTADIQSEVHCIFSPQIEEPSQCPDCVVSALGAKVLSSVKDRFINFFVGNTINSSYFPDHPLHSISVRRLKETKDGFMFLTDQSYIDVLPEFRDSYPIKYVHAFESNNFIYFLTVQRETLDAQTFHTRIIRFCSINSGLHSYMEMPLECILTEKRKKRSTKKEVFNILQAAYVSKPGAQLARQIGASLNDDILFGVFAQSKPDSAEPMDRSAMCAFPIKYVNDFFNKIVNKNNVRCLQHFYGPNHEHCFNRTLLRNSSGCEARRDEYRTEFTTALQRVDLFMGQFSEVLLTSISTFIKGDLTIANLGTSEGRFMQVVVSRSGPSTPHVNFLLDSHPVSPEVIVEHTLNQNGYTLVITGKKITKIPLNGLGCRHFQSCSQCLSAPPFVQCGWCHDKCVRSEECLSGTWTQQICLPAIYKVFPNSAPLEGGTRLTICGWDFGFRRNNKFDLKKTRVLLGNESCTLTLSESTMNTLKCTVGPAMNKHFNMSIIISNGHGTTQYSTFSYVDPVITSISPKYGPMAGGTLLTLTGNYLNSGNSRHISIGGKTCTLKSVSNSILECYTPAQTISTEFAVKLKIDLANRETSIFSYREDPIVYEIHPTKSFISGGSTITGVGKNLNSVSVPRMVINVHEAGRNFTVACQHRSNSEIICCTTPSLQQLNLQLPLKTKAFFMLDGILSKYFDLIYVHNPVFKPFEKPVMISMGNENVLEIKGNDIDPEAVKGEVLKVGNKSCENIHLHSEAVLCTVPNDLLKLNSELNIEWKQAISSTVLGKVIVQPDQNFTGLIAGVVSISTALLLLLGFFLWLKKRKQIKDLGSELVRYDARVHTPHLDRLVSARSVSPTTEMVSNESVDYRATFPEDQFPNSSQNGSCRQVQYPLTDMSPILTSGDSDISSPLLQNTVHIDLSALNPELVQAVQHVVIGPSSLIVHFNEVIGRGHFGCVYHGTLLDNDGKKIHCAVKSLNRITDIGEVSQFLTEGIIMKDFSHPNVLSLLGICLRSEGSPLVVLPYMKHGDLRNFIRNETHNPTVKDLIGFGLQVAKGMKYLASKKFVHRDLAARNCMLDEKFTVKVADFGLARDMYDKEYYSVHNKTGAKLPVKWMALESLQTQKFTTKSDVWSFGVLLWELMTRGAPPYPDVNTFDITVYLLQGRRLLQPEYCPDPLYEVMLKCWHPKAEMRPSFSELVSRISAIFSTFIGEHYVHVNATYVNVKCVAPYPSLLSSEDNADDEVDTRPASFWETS
Chain of Aurora kinase B (Homo sapiens) (Q96GD4 whole entry): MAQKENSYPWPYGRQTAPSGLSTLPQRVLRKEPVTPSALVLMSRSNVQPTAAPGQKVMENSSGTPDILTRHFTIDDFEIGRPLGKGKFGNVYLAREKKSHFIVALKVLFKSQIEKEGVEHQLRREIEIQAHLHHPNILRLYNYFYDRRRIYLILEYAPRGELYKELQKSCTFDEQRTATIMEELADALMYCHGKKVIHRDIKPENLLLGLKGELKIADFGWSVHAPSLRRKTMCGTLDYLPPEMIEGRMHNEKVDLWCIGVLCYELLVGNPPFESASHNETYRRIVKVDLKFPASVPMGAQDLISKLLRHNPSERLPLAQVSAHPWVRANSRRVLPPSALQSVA
Chain of Platelet-derived growth factor receptor beta (Homo sapiens) (P09619 whole entry): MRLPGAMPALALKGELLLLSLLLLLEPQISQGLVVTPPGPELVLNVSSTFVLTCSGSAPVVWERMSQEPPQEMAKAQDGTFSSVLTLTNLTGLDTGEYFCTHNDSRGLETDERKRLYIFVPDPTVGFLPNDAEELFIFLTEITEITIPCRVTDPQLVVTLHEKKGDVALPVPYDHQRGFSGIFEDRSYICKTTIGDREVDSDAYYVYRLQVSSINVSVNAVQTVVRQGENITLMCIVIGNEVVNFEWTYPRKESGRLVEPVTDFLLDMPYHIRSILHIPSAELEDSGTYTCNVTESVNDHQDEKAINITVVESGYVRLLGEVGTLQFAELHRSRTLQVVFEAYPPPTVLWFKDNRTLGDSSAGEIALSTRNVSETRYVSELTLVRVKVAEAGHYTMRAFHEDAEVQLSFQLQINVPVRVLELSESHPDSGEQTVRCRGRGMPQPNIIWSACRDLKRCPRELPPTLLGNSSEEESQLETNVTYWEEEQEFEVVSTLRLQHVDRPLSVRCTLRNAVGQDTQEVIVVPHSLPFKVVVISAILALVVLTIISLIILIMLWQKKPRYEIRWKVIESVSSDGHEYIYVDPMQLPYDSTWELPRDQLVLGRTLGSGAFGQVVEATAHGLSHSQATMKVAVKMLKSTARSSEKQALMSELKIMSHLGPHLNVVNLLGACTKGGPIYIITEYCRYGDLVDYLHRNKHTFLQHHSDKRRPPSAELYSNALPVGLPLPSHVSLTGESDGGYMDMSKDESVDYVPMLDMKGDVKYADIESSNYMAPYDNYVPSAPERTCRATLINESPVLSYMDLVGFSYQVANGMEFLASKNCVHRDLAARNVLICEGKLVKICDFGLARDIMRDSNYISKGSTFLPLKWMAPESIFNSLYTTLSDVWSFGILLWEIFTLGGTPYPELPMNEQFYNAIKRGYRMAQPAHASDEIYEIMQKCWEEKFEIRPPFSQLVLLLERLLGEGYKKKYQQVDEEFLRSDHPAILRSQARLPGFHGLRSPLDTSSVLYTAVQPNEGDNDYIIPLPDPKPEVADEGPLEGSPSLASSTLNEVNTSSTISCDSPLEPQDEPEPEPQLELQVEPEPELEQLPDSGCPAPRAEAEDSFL
Chain of Angiopoietin-1 receptor (Homo sapiens) (Q02763 whole entry): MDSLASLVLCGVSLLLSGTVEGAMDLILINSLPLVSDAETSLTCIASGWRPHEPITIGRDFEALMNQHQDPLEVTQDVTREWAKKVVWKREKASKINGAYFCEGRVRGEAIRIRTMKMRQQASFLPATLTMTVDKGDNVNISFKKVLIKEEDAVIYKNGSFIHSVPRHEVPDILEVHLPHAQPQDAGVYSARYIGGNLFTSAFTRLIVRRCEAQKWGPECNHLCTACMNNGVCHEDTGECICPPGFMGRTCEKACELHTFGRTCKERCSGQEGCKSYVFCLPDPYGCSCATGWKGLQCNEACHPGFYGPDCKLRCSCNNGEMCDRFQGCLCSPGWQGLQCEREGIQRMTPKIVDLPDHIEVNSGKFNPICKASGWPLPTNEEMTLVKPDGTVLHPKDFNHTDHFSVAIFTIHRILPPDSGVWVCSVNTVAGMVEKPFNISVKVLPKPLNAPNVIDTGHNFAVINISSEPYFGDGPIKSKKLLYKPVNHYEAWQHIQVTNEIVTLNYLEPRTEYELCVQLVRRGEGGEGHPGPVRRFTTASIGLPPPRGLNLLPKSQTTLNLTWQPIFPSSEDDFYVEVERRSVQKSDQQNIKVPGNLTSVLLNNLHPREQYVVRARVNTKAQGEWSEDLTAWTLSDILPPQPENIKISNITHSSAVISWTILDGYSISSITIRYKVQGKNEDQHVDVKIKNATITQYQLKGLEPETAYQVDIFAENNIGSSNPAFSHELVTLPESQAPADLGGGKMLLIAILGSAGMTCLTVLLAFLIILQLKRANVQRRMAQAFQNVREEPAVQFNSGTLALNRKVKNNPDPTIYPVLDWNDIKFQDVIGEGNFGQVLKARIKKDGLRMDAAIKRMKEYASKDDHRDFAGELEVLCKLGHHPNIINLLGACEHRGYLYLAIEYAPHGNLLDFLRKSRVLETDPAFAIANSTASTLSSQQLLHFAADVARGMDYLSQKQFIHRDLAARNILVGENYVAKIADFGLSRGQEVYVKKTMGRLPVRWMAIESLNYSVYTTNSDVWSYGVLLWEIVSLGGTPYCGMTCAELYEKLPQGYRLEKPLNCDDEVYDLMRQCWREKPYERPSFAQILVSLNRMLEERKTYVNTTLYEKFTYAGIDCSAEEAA

Compound	GI50 (HCT-116 [1]) [nM]	IC50 (Aurora kinase A) [nM]	other results
CN(C)c1ccc(-c2nc3c(N4CCN(Cc5ccncc5)CC4)c(Br)cnc3[nH]2)cc1	700	55	
CC(C)CN1CCN(c2c(Br)cnc3[nH]c(-c4ccc(N(C)C)cc4)nc23)CC1	970	210	
COc1ccc(-c2nc3c(N4CCN(Cc5cccnc5)CC4)c(Br)cnc3[nH]2)cc1	1150	9	
CC(c1ccncc1)N1CCN(c2c(Br)cnc3[nH]c(-c4ccc(N(C)C)cc4)nc23)CC1 (stereo not given)	900	85	
Cn1ccnc1CN1CCN(c2c(Br)cnc3[nH]c(-c4ccc(CN5CCOCC5)cc4)nc23)CC1	1500	30	
Cc1cc(CN2CCN(c3c(Br)cnc4nc(-c5ccc(CN(C)C)cc5)[nH]c34)CC2)no1	230	14	remaining at 0.5 h, 10 µM [2]: > 50%
Cc1cc(CN2CCN(c3c(Br)cnc4[nH]c(-c5ccc(OCCO)cc5)nc34)CC2)no1	280	30	solubility [3]: 10 µg/mL (≈ 19.5 µM); remaining at 0.5 h, 10 µM [2]: > 50%
Cc1cc(CN2CCN(c3c(Cl)cnc4[nH]c(-c5ccc(Cn6cccn6)cc5)nc34)CC2)no1	450		
Cc1cc(CN2CCN(c3c(Cl)cnc4nc(-c5ccc(OCCO)cc5)[nH]c34)CC2)no1	450	20	remaining at 0.5 h, 10 µM [2]: > 50%
Brc1cnc2[nH]c(-c3ccc(CN4CCOCC4)cc3)nc2c1N1CCN(Cc2cncnc2)CC1	420	6	
Cc1cc(CN2CCN(c3c(Br)cnc4nc(-c5ccc(CN6CCNCC6)cc5)[nH]c34)CC2)no1	78	10	solubility [3]: 870 µg/mL (≈ 1580 µM); remaining at 0.5 h, 10 µM [2]: > 50%
Brc1cnc2[nH]c(-c3ccc(CN4CCOCC4)cc3)nc2c1N1CCN(Cc2cscn2)CC1		6	
CN(C)c1ccc(-c2nc3c(N4CCN(C(=O)Nc5ccccc5)CC4)c(Br)cnc3[nH]2)cc1	10000	277	
Cc1cc(CN2CCN(c3c(Cl)cnc4nc(-c5ccc(CN)cc5)[nH]c34)CC2)no1	650	55	remaining at 0.5 h, 10 µM [2]: > 50%
Cc1cc(CN2CCN(c3c(Br)cnc4[nH]c(-c5ccc(N6CCNCC6)cc5)nc34)CC2)no1	100		remaining at 0.5 h, 10 µM [2]: > 50%
Cc1cc(CN2CCN(c3c(Br)cnc4[nH]c(-c5ccc(Cn6cccn6)cc5)nc34)CC2)no1	120		
COc1ccc(-c2nc3c(N4CCN(CC(=O)Nc5nccs5)CC4)c(Cl)cnc3[nH]2)cc1	900	52	
CN(C)Cc1ccc(-c2nc3c(N4CCN(CC(=O)Nc5nccs5)CC4)c(Br)cnc3[nH]2)cc1	1000	16	
CN(C)c1ccc(-c2nc3c(N4CCNCC4)c(Br)cnc3[nH]2)cc1	950	365	
O=C(CN1CCN(c2c(Br)cnc3[nH]c(-c4ccccc4)nc23)CC1)Nc1nccs1	3000	81	

Compound	GI50 (HCT-116 [1]) [nM]	IC50 (Aurora kinase A) [nM]	other results
CN(C)c1ccc(-c2nc3c(N4CCN(CC(=O)Nc5nccs5)CC4)c(C#N)cnc3[nH]2)cc1	1030	50	
COc1ccc(-c2nc3c(N4CCN(Cc5cscn5)CC4)c(Br)cnc3[nH]2)cc1	320	4	remaining at 0.5 h, 10 µM [2]: 45%
Cc1cc(CN2CCN(c3c(Br)cnc4[nH]c(-c5ccc(CN)cc5)nc34)CC2)no1	240	10	remaining at 0.5 h, 10 µM [2]: > 50%
CN(C)c1ccc(-c2nc3c(N4CCN(CC(=O)Nc5cccc(Cl)c5)CC4)c(Cl)cnc3[nH]2)cc1	2670	75	
CN(C)c1ccc(-c2nc3c(N4CCN(CC(=O)Nc5ccccc5)CC4)c(Cl)cnc3[nH]2)cc1	2550	115	
Cc1cc(CN2CCN(c3c(Br)cnc4[nH]c(-c5ccc(CN6CCOCC6)cc5)nc34)CC2)no1	60	2	
COc1ccc(-c2nc3ncc(C4CC4)c(N4CCN(CC(=O)Nc5nccs5)CC4)c3[nH]2)cc1	2500	53	
CN(C)c1ccc(-c2nc3c(N4CCN(c5ccccc5)CC4)c(Br)cnc3[nH]2)cc1		258	
COc1ccc(-c2nc3c(N4CCN(Cc5nccn5C)CC4)c(Br)cnc3[nH]2)cc1	1500	32	
Clc1ccc(CN2CCN(c3c(Br)cnc4[nH]c(-c5ccc(CN6CCOCC6)cc5)nc34)CC2)cc1	600		inhibition [4]: 98%; inhibition [5]: 5%; inhibition at 10 µM (hERG (KCNH2)): 53%; inhibition [6]: 60%; inhibition [7]: 4%; inhibition [8]: 35%; inhibition [9]: 35%; inhibition [10]: 8%; inhibition [11]: 3%; inhibition [12]: 33%; inhibition [13]: 15%
CN(C)c1ccc(-c2nc3c(N4CCN(CC(=O)Nc5nccs5)CC4)c(Br)cnc3[nH]2)cc1	480	55	
CC(c1ccccc1)N1CCN(c2c(Cl)cnc3[nH]c(-c4ccc(N(C)C)cc4)nc23)CC1 (stereo not given)	900	79	
COc1ccc(-c2nc3c(N4CCN(Cc5cncnc5)CC4)c(Br)cnc3[nH]2)cc1	400	8	
O=C(CN1CCN(c2c(Br)cnc3[nH]cnc23)CC1)Nc1nccs1		517	inhibition of growth at 10 µM (HCT-116 [14]): 40%
CN(C)c1ccc(-c2nc3c(N4CCN(CC(=O)Nc5cccnc5)CC4)c(Br)cnc3[nH]2)cc1	1650	118	
COc1ccc(-c2nc3c(N4CCN(Cc5cc(C)on5)CC4)c(Br)cnc3[nH]2)cc1	540	17	inhibition (INH) [15]: Not Active; bioavailability [16]: 23%; Papp [17]: 6 ×10⁻⁶ cm/s; solubility [3]: < 10 µg/mL; remaining at 0.5 h, 10 µM [2]: > 50%
O=C(CN1CCN(c2c(Cl)cnc3[nH]c(-c4ccc(CN5CCOCC5)cc4)nc23)CC1)Nc1nccs1	360	3	
COc1ccc(-c2nc3c(N4CCN(CC5CC5)CC4)c(Br)cnc3[nH]2)cc1	830	650	
Brc1cnc2[nH]c(-c3ccc(CN4CCOCC4)cc3)nc2c1N1CCN(Cc2cccnc2)CC1	280		bioavailability [16]: 13%; solubility [3]: 30 µg/mL (≈ 54.7 µM)
CN(C)c1ccc(-c2nc3c(N4CCN(S(=O)(=O)c5ccccc5)CC4)c(Br)cnc3[nH]2)cc1		178	

Reference: ChEMBL document CHEMBL1155446, “Imidazo[4,5-b]pyridine derivatives as inhibitors of Aurora kinases: lead optimization studies toward the identification of an orally bioavailable preclinical development candidate” (J Med Chem, 2010)
